*1 amine or outer side, *2 acyl side, *3 side chain or, on linkers, in order; H or OH if unused. Where a SMILES comes first, the peptide text is derived from it. Side-chain parts run from the residue outwards. [ ]: non-standard residue; d: D form. The star is where a group is joined. C20 diacid = O=C(O)CCCCCCCCCCCCCCCCCCC(=O)*; αMePhe(2-F) = C[C@](N)(Cc1ccccc1F)C(=O)O; γGlu = O=C(O)[C@H](CCC(=O)[*:2])N[*:1]; AEEA = NCCOCCOCC(=O)O; Aib = CC(C)(N)C(=O)O
Molecular target: T1, human GIP-R (Homo sapiens, UniProt P48546)
T1 construct: expressed in transfected cells; host or cells: HEK-293 clonal cell line
T1 sequence (P48546 22-466): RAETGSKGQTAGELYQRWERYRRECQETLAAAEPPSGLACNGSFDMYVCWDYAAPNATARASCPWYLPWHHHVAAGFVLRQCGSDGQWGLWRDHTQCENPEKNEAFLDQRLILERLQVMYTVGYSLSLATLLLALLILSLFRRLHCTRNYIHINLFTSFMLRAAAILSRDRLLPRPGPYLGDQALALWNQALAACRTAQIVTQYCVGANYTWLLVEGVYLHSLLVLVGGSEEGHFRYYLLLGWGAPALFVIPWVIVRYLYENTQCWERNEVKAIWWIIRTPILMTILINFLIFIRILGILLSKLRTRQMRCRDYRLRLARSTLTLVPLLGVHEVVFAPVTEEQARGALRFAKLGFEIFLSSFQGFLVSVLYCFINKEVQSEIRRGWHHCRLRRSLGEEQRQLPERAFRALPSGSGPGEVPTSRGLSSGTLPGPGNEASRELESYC
Test: cAMP functional activity in GIP-R-expressing HEK-293 cells, FBS and BSA
Format: cell-based
Settings: in the presence of FBS and BSA; read-out: cAMP EC50, nM (SEM, n) GIPR

Structure (SMILES)	EC50 [nM]
CC[C@H](C)[C@H](NC(=O)[C@H](Cc1ccccc1)NC(=O)[C@H](C)NC(=O)C(C)(C)NC(=O)[C@H](CCC(N)=O)NC(=O)[C@H](C)NC(=O)[C@H](CCCCNC(=O)COCCOCCNC(=O)COCCOCCNC(=O)CC[C@H](NC(=O)CCCCCCCCCCCCCCCCCCC(=O)O)C(=O)O)NC(=O)[C@H](CCCCN)NC(=O)[C@H](CC(=O)O)NC(=O)[C@H](CC(C)C)NC(=O)[C@H](CC(C)C)NC(=O)[C@@H](NC(=O)[C@H](CO)NC(=O)[C@H](Cc1ccc(O)cc1)NC(=O)[C@H](CC(=O)O)NC(=O)[C@H](CO)NC(=O)[C@@H](NC(=O)[C@](C)(Cc1ccccc1F)NC(=O)[C@@H](NC(=O)CNC(=O)[C@H](Cc1c[nH]cn1)NC(=O)C(C)(C)NC(=O)[C@@H](N)Cc1ccc(O)cc1)[C@@H](C)O)[C@@H](C)O)[C@@H](C)CC)C(=O)N[C@@H](CCC(=O)O)C(=O)N[C@@H](Cc1ccc(O)cc1)C(=O)N[C@@H](CC(C)C)C(=O)N[C@@H](CC(C)C)C(=O)N[C@@H](CCC(=O)O)C(=O)NCC(=O)NCC(=O)N1CCC[C@H]1C(=O)N[C@@H](CO)C(=O)N[C@@H](CO)C(=O)NCC(=O)N[C@@H](C)C(=O)N1CCC[C@H]1C(=O)N1CCC[C@H]1C(=O)N1CCC[C@H]1C(=O)N[C@@H](CO)C(N)=O [Example 3] (H-Y[Aib]HGT[αMePhe(2-F)]TSDYSILLDKK([AEEA-AEEA-γGlu-C20 diacid])AQ[Aib]AFIEYLLEGGPSSGAPPPS-NH2)	1.37
CC[C@H](C)[C@H](NC(=O)[C@H](Cc1ccccc1)NC(=O)[C@H](C)NC(=O)C(C)(C)NC(=O)[C@H](CCC(N)=O)NC(=O)[C@H](C)NC(=O)[C@H](CCCCNC(=O)COCCOCCNC(=O)CC[C@H](NC(=O)CCCCCCCCCCCCCCCCCCC(=O)O)C(=O)O)NC(=O)[C@H](CCCCN)NC(=O)[C@H](CC(=O)O)NC(=O)[C@H](CC(C)C)NC(=O)[C@H](CC(C)C)NC(=O)[C@@H](NC(=O)[C@H](CO)NC(=O)[C@H](Cc1ccc(O)cc1)NC(=O)[C@H](CC(=O)O)NC(=O)[C@H](CO)NC(=O)[C@@H](NC(=O)[C@](C)(Cc1ccccc1F)NC(=O)[C@@H](NC(=O)CNC(=O)[C@H](CCC(N)=O)NC(=O)C(C)(C)NC(=O)[C@@H](N)Cc1ccc(O)cc1)[C@@H](C)O)[C@@H](C)O)[C@@H](C)CC)C(=O)N[C@@H](CCC(=O)O)C(=O)N[C@@H](Cc1ccc(O)cc1)C(=O)N[C@@H](CC(C)C)C(=O)N[C@@H](CC(C)C)C(=O)N[C@@H](CCC(=O)O)C(=O)NCC(=O)NCC(=O)N1CCC[C@H]1C(=O)N[C@@H](CO)C(=O)N[C@@H](CO)C(=O)NCC(=O)N[C@@H](C)C(=O)N1CCC[C@H]1C(=O)N1CCC[C@H]1C(=O)N1CCC[C@H]1C(=O)N[C@@H](CO)C(N)=O [Example 4]	1.37
